From ChEMBL document CHEMBL3745676, “Alkylamino derivatives of N-benzylpyrazine-2-carboxamide: synthesis and antimycobacterial evaluation” (Medchemcomm, 2015)
≈ marks a conversion by molar mass, not a printed value. Calls of active or inactive are those of the source. No cut-off for these calls is given here.

Legend:
[1] = system: Pseudomonas aeruginosa; test: Antibacterial activity against Pseudomonas aeruginosa CCM 1961 after 24 to 48 hrs by broth microdilution method; type: functional
[2] = system: Nakaseomyces glabratus; test: Antifungal activity against Candida glabrata 20/I after 24 to 48 hrs by broth microdilution method; type: functional
[3] = system: Mycobacterium avium; test: Antimycobacterial activity against Mycobacterium avium CNCTC My 152/73 after 5 days by microplate alamar blue assay; type: functional; details: CNCTC My 152/73, 120 h
[4] = system: Mycobacterium kansasii; test: Antimycobacterial activity against Mycobacterium kansasii CNCTC My 235/80 incubated for 5 to 7 days by microplate alamar blue assay; type: functional
[5] = system: Lichtheimia corymbifera; test: Antifungal activity against Lichtheimia corymbifera 272 after 24 to 48 hrs by broth microdilution method; type: functional
[6] = system: Trichophyton mentagrophytes; test: Antifungal activity against Trichophyton mentagrophytes 445 after 72 to 120 hrs by broth microdilution method; type: functional
[7] = Cytotoxicity against human HeLa cells assessed as cell viability after 4 to 6 days by microscopic analysis; type: cell-based
[8] = system: Mycobacterium avium; test: Antimycobacterial activity against Mycobacterium avium CNCTC My 80/72 after 5 days by microplate alamar blue assay; type: functional; details: CNCTC My 80/72, 120 h
[9] = system: Mycobacterium tuberculosis; test: Potency index, ratio of pyrazinamide MIC to compound MIC for Mycobacterium tuberculosis H37Rv CNCTC My 331/88; type: functional
[10] = Cytotoxicity against CRFK cells assessed as cell viability after 4 to 6 days by formazan-based MTS assay; set-up: species or system Felis catus; details: cat
[11] = Cytotoxicity against African green monkey Vero cells assessed as cell viability after 4 to 6 days by microscopic analysis; type: cell-based; details: chlorocebus sabaeus
[12] = system: Escherichia coli; test: Antibacterial activity against Escherichia coli CCM 4517 after 24 to 48 hrs by broth microdilution method; type: functional
[13] = Cytotoxicity against MDCK cells assessed as cell viability after 4 to 6 days by formazan-based MTS assay; set-up: species or system Canis lupus familiaris; details: dog
[14] = system: Mycobacterium tuberculosis; test: Antimycobacterial activity against Mycobacterium tuberculosis H37Rv CNCTC My 331/88 incubated for 10 to 14 days by microplate alamar blue assay; type: functional
[15] = Cytotoxicity against HEL cells assessed as cell viability after 4 to 6 days by microscopic analysis; type: cell-based; details: human
[16] = system: Candida tropicalis; test: Antifungal activity against Candida tropicalis 156 after 24 to 48 hrs by broth microdilution method; type: functional
[17] = system: Candida albicans; test: Antifungal activity against Candida albicans ATCC 44859 after 24 to 48 hrs by broth microdilution method; type: functional
[18] = Lipophilicity, logK of the compound by RP-HPLC analysis; type: physicochemical
[19] = system: Klebsiella pneumoniae; test: Antibacterial activity against ESBL positive Klebsiella pneumoniae J 14368/08 after 24 to 48 hrs by broth microdilution method; type: functional
[20] = system: Trichosporon asahii; test: Antifungal activity against Trichosporon asahii 1188 after 24 to 48 hrs by broth microdilution method; type: functional
[21] = system: Klebsiella pneumoniae; test: Antibacterial activity against Klebsiella pneumoniae D 11750/08 after 24 to 48 hrs by broth microdilution method; type: functional
[22] = system: Influenza A virus; test: Antiviral activity against Influenza A virus (A/Puerto Rico/8/(H1N1)) assessed as inhibition of virus-induced cytopathic effect after 3 to 6 days by microscopic analysis; type: functional, organism-based
[23] = system: Aspergillus fumigatus; test: Antifungal activity against Aspergillus fumigatus 231 after 24 to 48 hrs by broth microdilution method; type: functional
[24] = system: Pichia kudriavzevii; test: Antifungal activity against Candida krusei E28 after 24 to 48 hrs by broth microdilution method; type: functional
[25] = Cytotoxicity against MDCK cells assessed as cell viability after 4 to 6 days by microscopic analysis; type: cell-based, Canis lupus familiaris; details: dog
[26] = system: Influenza A virus; test: Antiviral activity against Influenza A virus (A/Puerto Rico/8/(H1N1)) assessed as inhibition of virus-induced cytopathic effect after 3 to 6 days by formazan-based MTS assay; type: functional, organism-based
[27] = system: Mycobacterium tuberculosis; test: Effect on short chain fatty acids production in [1,2-14C]-acetate-labelled Mycobacterium tuberculosis H37Ra at 5 ug/ml preincubated for 20 hrs followed by radiolabelling measured after 24 hrs by autoradiography; type: functional, organism-based
[28] = system: Mycobacterium tuberculosis; test: Inhibition of mycolic acid synthesis in [1,2-14C]-acetate-labelled Mycobacterium tuberculosis H37Ra at 5 ug/ml preincubated for 20 hrs followed by radiolabelling measured after 24 hrs by autoradiography; type: functional, organism-based
[29] = system: Mycobacterium tuberculosis; test: Antimycobacterial activity against Mycobacterium tuberculosis H37Rv; type: functional

**Q.** With CCCCCCCNc1cnc(C(=O)NCc2ccccc2)cn1 as the compound, how does the MIC95 [1] read?
**A.** Its MIC95 is greater than 500 µM.

**Q.** What about the MIC [2] of the same compound?
**A.** The MIC was greater than 500 µM.

**Q.** What about the MIC [3] of the same compound?
**A.** The MIC was greater than 100 µg/mL.

**Q.** And the MIC [4]?
**A.** The MIC was greater than 100 µg/mL.

**Q.** And the MIC [5]?
**A.** Its MIC is greater than 500 µM.

**Q.** What about the MIC [6] of the same compound?
**A.** Its MIC is greater than 500 µM.

**Q.** What about the MCC [7] of the same compound?
**A.** Its MCC is greater than 100 µM.

**Q.** And the MIC [8]?
**A.** Its MIC is greater than 100 µg/mL.

**Q.** And the Ratio [9]?
**A.** Its Ratio is “<=20”.

**Q.** What about the CC50 [10] of the same compound?
**A.** Its CC50 is greater than 100 µM.

**Q.** What about the MCC [11] of the same compound?
**A.** Its MCC is no less than 100 µM.

**Q.** What about the MIC95 [12] of the same compound?
**A.** Its MIC95 is greater than 500 µM.

**Q.** What about the CC50 [13] of the same compound?
**A.** Its CC50 is greater than 100 µM.

**Q.** What about the MIC [14] of the same compound?
**A.** Its MIC is 10 µM (≈ 3.26 µg/mL).

**Q.** What about the MCC [15] of the same compound?
**A.** The MCC was greater than 100 µM.

**Q.** What about the MIC [16] of the same compound?
**A.** The MIC was greater than 500 µM.

**Q.** What about the MIC [17] of the same compound?
**A.** Its MIC is greater than 500 µM.

**Q.** And the “log K” value [18]?
**A.** Its value is 1.089.

**Q.** What about the MIC95 [19] of the same compound?
**A.** Its MIC95 is greater than 500 µM.

**Q.** And the MIC [20]?
**A.** The MIC was greater than 500 µM.

**Q.** And the MIC95 [21]?
**A.** Its MIC95 is greater than 500 µM.

**Q.** What about the EC50 [22] of the same compound?
**A.** Its EC50 is 21 µM.

**Q.** What about the MIC [23] of the same compound?
**A.** The MIC was greater than 500 µM.

**Q.** And the MIC [24]?
**A.** Its MIC is greater than 500 µM.

**Q.** What about the MCC [25] of the same compound?
**A.** Its MCC is greater than 100 µM.

**Q.** And the EC50 [26]?
**A.** The EC50 was 47 µM.

**Q.** For NNC(=O)c1ccncc1 [ISONIAZID], which MIC [4] is on record?
**A.** Its MIC is 11 µM.

**Q.** And the MIC [14]?
**A.** The MIC was 2.8 µM (≈ 0.384 µg/mL).

**Q.** What about the Activity [27] of the same compound?
**A.** Its Activity is “inactive”.

**Q.** What about the “log K” value [18] of the same compound?
**A.** Its value is -0.743.

**Q.** What about the inhibition [28] of the same compound?
**A.** The inhibition was “Active”.

**Q.** Which results are given for O=C(NCc1ccccc1)c1cncc(Cl)n1?
**A.** MIC [3]: > 100 µg/mL; MIC [4]: 404 µM; MIC [8]: > 100 µg/mL; MIC [29]: 50 µM (≈ 12.4 µg/mL); log K [18]: 0.2
